Data from US11447534B2, “Peptide complex with immunodulatory and anti-inflammatory function” (NATIONAL INSTITUTE OF IMMUNOLOGY, priority 2018, dated 2022).

What was measured:
Abeta42 = target: T1, Abeta42 (Homo sapiens, UniProt P05067); assay: Abeta42 fibrillization in situ (TEM, Thioflavin T binding assay); assay type: biochemical; details: Abeta42 100 μM + Glu-OC 3 ng vs Abeta42 control, 8th hour
T1 construct: of Abeta 1-42 peptide; Molecular weight = 4514.1; purchased r-peptide
Description: For this study, different concentrations of Glu-OC viz. […] After keeping the samples for 5 minutes, the excess was washed off with ultrapure water and surplus sample and water were wicked away using absorbent paper. The samples were negatively stained using 1% uranyl acetate stain, dried and analyzed in a transmission electron microscope CM10 Philips operated at 80 kV. […] ThT assay measures the changes in fluorescence intensity of ThT upon binding to amyloid fibrils. […] The resulting ThT fluorescence intensities of samples were measured at an emission wavelength of 480 nm and excitation wavelength of 440 nm and 5 nm slit width using a Jobin Vyon Horiba Fluoromax-4 spectrofluorimeter. The inner filter effect was taken into account using the Equation: Fc=F×anti log[(Aex+Aem)/2] where Fc is the corrected flourescence and F is apparent fluorescence, Aex and Aem are the absorbances of the samples at excitation and emission wavelengths respectively.

[1] = system: ConA activated macrophages; assay: qPCR in ConA activated macrophages; assay type: cell-based, murine
Description: To determine the immunomodulatory effect of A-O complex, serum starved macrophages were exposed to the complex. Macrophages (1×10^6 cells) were serum starved for 30 min after which cells were exposed to A-O complex. After 1 hour, cells were washed with 1×PBS (pH 7.4) and harvested using cell dissociation solution. Then the cells were suspended in ice cold staining buffer (100 μl) and centrifuged at 1000 rpm for 5 min at 4° C. The cells were resuspended in 100 μl ice cold staining buffer for 10 min at 2-8° C. and pellet resuspended in 50 μl staining media. To this 2 μl of Fc block or anti-mouse CD16/CD32 was added for 10 mins and washed with staining buffer. The cells were resuspended in 50 μl of staining buffer and incubated with fluorescent-tagged CD36 antibody (e-biosciences) for 25-30 min on ice. The excess stain was removed by washing and pelleting down using staining buffer thrice by spinning and removal of staining buffer. The cell suspension was fixed 1:1 ratio (staining buffer:fixative) and analysed within 48 h in ARIA3 DIVA software version 6.1. Further, expression of MHC-II, and CD-36, was also determined in the microglial cells via qPCR. For this RNA extraction was performed using RNA extraction kit from Qiagen according to the manufacturer's instruction. cDNA synthesis was performed using cDNA synthesis kit from Qiagen. […] Following amplification, fold changes in gene expression versus β-actin (reference) analysis was determined using the 2^ΔΔCT(Livak) method. To determine the immunomodulatory effect of A-O complex on activated macrophages, macrophages were activated with Concanavalin-A (Con-A), for 30 minutes and the changes in mRNA levels of Cd36, Lrp1, Cd11b, Cd74 and Apoe were analyzed by qPCR.

[2] = system: ConA stimulated EOC20 microglia; assay: F-actin staining and qPCR in ConA stimulated EOC20 microglia; assay type: cell-based
Description: To determine the immunomodulatory effect of A-O complex, serum starved macrophages were exposed to the complex. Macrophages (1×10^6 cells) were serum starved for 30 min after which cells were exposed to A-O complex. After 1 hour, cells were washed with 1×PBS (pH 7.4) and harvested using cell dissociation solution. Then the cells were suspended in ice cold staining buffer (100 μl) and centrifuged at 1000 rpm for 5 min at 4° C. The cells were resuspended in 100 μl ice cold staining buffer for 10 min at 2-8° C. and pellet resuspended in 50 μl staining media. To this 2 μl of Fc block or anti-mouse CD16/CD32 was added for 10 mins and washed with staining buffer. The cells were resuspended in 50 μl of staining buffer and incubated with fluorescent-tagged CD36 antibody (e-biosciences) for 25-30 min on ice. The excess stain was removed by washing and pelleting down using staining buffer thrice by spinning and removal of staining buffer. The cell suspension was fixed 1:1 ratio (staining buffer:fixative) and analysed within 48 h in ARIA3 DIVA software version 6.1. Further, expression of MHC-II, and CD-36, was also determined in the microglial cells via qPCR. For this RNA extraction was performed using RNA extraction kit from Qiagen according to the manufacturer's instruction. cDNA synthesis was performed using cDNA synthesis kit from Qiagen. To perform qPCR, 10 ng cDNA (per well) was amplified using the Light Cycler 480 Sybergreen I Master reagent (Roche Diagnostics, Indianapolis, Ind.) and primers (commercially purchased from SABiosciences, Qiagen) in the Light Cycler 480 (Roche Diagnostics, Switzerland) under following cycling conditions: 3 min at 95° C., 15 sec at 95° C., 20 sec at 60° C., 25 sec at 72° C. for 40 cycles. Following amplification, fold changes in gene expression versus β-actin (reference) analysis was determined using the 2^ΔΔCT(Livak) method.
To determine the immunomodulatory effect of A-O complex in microglia, EOC20 microglial cells from ATCC (CRL-2469) was employed. The cells were cultured in high glucose Dulbecco's […] Essential Media (DMEM) containing 4 mM L-glutamine, 10% fetal bovine serum (FBS) and 20% LADMAC conditioned media. LADMAC media was prepared by growing 80% confluent LADMAC cell line from ATCC (CRL-2420) in alpha-minimal essential media supplemented with 10% FBS for 5 days. The spent supernatant was centrifuged at 1000 rpm for 10 min and the supernatant was filtered as used as LADMAC media. To determine the morphological changes in microglia upon exposure to A-O complex, F-actin confocal microscopy was performed. […]
Next, immunomodulatory effect of A-O complex on activated microglial cells was determined. […] The immunomodulatory effect was assessed via F-actin staining and qPCR.

[3] = ConA stimulated microglia, qPCR

T1 sequence (P05067 672-713): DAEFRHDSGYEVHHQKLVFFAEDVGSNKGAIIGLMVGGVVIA

With “A-O complex: peptide complex of 100 μM Abeta1-42 (SEQ ID NO: 1) and 3 ng Glu-OC (SEQ ID NO: 2), incubated at 37° C. for 4 hours” the ThT fluorescence emission (Abeta42) was “high enhancement of fluorescence emission of ThT”, the “mRNA level of Cd11b” value [1] was “significantly reversed” and the “mRNA level of Cd36” value [1] was “significantly induced”. For the same substance, the “mRNA level of Cd74” value [1] was “significantly reversed”, the “mRNA level of Cd11b” value [2, 3] was “normalized” and the “mRNA level of Cd36” value [2, 3] was “induced”. The “mRNA level of Tnfa” value [2, 3] was “normalized” and the “microglia morphology (F-actin)” value ([2]; EOC20 microglia, ConA 30 mins then A-O complex 1 hour) was “presence of cells with ramified process”.
